Where “and” joins values, the source holds several entries; their conditions need not be identical. Identical values can stand only once.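 Compound exposure: 48 hours, 5 concentrations, 96-well plates. GI50 is the concentration that inhibits growth by half. TGI: concentration producing complete growth inhibition.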
Columns and labels:
Experiment in all cases: DTP human tumour cell line panel, 48 h
[1] = system: SF-295 CNS
[2] = system: OVCAR-8 ovarian
[3] = system: TK-10 renal
[4] = system: DMS 273 small cell lung
[5] = system: SW-620 colon
[6] = system: SNB-78 CNS
[7] = system: OVCAR-3 ovarian
[8] = system: SK-MEL-2 melanoma
[9] = system: MALME-3M melanoma
[10] = system: HS 578T breast

For Cc1cc(=O)n(-c2c(C)cccc2Cl)c(/C=C(\O)c2ccncc2)n1, the TGI [1] was > 100 µM, the TGI [2] was > 100 µM and the TGI [3] was > 100 µM. The TGI [4] was > 100 µM, the TGI [5] was > 100 µM and the TGI [6] was > 100 µM. For the same compound, the TGI [7] was > 100 µM, the TGI [8] was > 100 µM and the TGI [9] was > 100 µM.

For CC(=O)OC(C)(C)/C=C/C(=O)[C@](C)(O)[C@H]1[C@H](O)C[C@@]2(C)[C@@H]3CC=C4[C@@H](C=C(O)C(=O)C4(C)C)[C@]3(C)C(=O)C[C@]12C, the TGI [2] was 5.35 µM and 2.14 µM and 3.28 µM, the TGI [3] was 0.15 µM and 0.204 µM and the TGI [4] was 0.203 µM and 0.0544 µM and 0.1 µM. The TGI [5] was 7.04 µM and 1.26 µM and 3.48 µM and the TGI [8] was 64.9 nM [middle of 4 runs].

In the case of COc1cccc(C2=C(c3cn(C)c4cc(F)ccc34)C(=O)NC2=O)c1, the GI50 [1] is reported as > 18.3 µM, the TGI [1] is reported as > 25 µM and the GI50 [2] is reported as > 18.2 µM. For the same compound, the TGI [2] was > 25 µM, the GI50 [3] was > 16.9 µM and the TGI [3] was > 25 µM. The GI50 [10] was > 24 µM, the TGI [10] was > 25 µM and the GI50 [5] was 13.1 µM. The TGI [5] was > 25 µM, the GI50 [7] was > 18.7 µM and the TGI [7] was > 25 µM. The GI50 [8] was > 19.4 µM, the TGI [8] was > 25 µM and the GI50 [9] was > 18 µM. The TGI [9] was > 25 µM.

Work on C/C(=N/O)c1ccc2c(c1)/C(=N/O)c1ccccc1-2 yielded a GI50 [1] of 22.6 µM, a TGI [1] of 50.4 µM and a GI50 [2] of 21.4 µM. It also gave a TGI [2] of 46.4 µM, a GI50 [3] of 26.7 µM and a TGI [3] of 67.2 µM. The GI50 [10] was 29.4 µM, the TGI [10] was 99.2 µM and the GI50 [5] was 19.3 µM. It also gave a TGI [5] of 44.2 µM, a GI50 [7] of 25.5 µM and a TGI [7] of 57.7 µM. It also gave a GI50 [8] of 23.1 µM, a TGI [8] of 48 µM and a GI50 [9] of 21.9 µM. It also gave a TGI [9] of 46 µM.

With NC1=NC(=O)/C(=C/c2ccc3ncccc3c2)S1 the GI50 [1] was > 25 µM, the TGI [1] was > 25 µM and the GI50 [2] was > 25 µM. For the same compound, the TGI [2] was > 25 µM, the GI50 [3] was > 25 µM and the TGI [3] was > 25 µM. For the same compound, the GI50 [10] was > 25 µM, the TGI [10] was > 25 µM and the GI50 [5] was > 25 µM. For the same compound, the TGI [5] was > 25 µM, the GI50 [7] was > 25 µM and the TGI [7] was > 25 µM. For the same compound, the GI50 [8] was > 20.7 µM, the TGI [8] was > 25 µM and the GI50 [9] was > 25 µM. For the same compound, the TGI [9] was > 25 µM.

COc1ccc(-c2[nH]nc(N)c2-c2cc(OC)c3c(c2)OCO3)cc1 was tested, and the GI50 [1] was 3.92 µM, the TGI [1] was 32.4 µM and the GI50 [2] was 4.44 µM. For the same compound, the TGI [2] was > 100 µM, the GI50 [3] was 8.42 µM and the TGI [3] was 60.1 µM. The GI50 [10] was 2.01 µM, the TGI [10] was 5.21 µM and the GI50 [5] was 3 µM. For the same compound, the TGI [5] was > 100 µM, the GI50 [7] was 2.48 µM and the TGI [7] was 6.05 µM. It also gave a GI50 [8] of 2.81 µM, a TGI [8] of 6.42 µM and a GI50 [9] of 5.01 µM. The TGI [9] was > 100 µM.

CCCCCCCCCCCCCCCCCCOc1ccccc1CC(=O)OCC[N+](CC)(CC)CC was tested, and the GI50 [1] was 1.27 µM, the TGI [1] was 5.11 µM and the GI50 [2] was 1.69 µM. The TGI [2] was 8.3 µM, the GI50 [3] was 1.45 µM and the TGI [3] was 7.65 µM. For the same compound, the GI50 [10] was 1.34 µM, the TGI [10] was 4.55 µM and the GI50 [5] was 1.82 µM. For the same compound, the TGI [5] was 7.33 µM, the GI50 [7] was 1.73 µM and the TGI [7] was 6.33 µM. It also gave a GI50 [8] of 1.28 µM, a TGI [8] of 3.13 µM and a GI50 [9] of 1.31 µM. The TGI [9] was 3.77 µM.

COc1cccc(/C=C/c2ccnc3ccccc23)c1OC was tested, and the TGI [1] was > 10 µM, the TGI [2] was > 10 µM and the TGI [3] was > 10 µM. For the same compound, the TGI [10] was > 10 µM, the TGI [5] was > 10 µM and the TGI [7] was > 10 µM. The TGI [8] was > 10 µM and the TGI [9] was > 10 µM.

For NC(=O)CC1(O)C=C(Br)C(=O)C(Br)=C1, the GI50 [1] was 12.6 µM, the TGI [1] was 26.5 µM and the GI50 [2] was 2.88 µM. For the same compound, the TGI [2] was 9.42 µM, the GI50 [3] was 1.65 µM and the TGI [3] was 4.2 µM. For the same compound, the GI50 [10] was 17.8 µM, the TGI [10] was 46 µM and the GI50 [5] was 1.77 µM. For the same compound, the TGI [5] was 3.47 µM, the GI50 [7] was 2.22 µM and the TGI [7] was 5.34 µM. It also gave a GI50 [8] of 5.21 µM, a TGI [8] of 18.4 µM and a GI50 [9] of 2.12 µM. The TGI [9] was 4.36 µM.

For CC1CCC(=O)C(C(O)CC2CC(=O)N(c3ccccc3)C(=O)C2)C1 (stereo unspecified), the TGI [1] was > 100 µM, the TGI [2] was > 100 µM and the TGI [3] was > 100 µM. For the same compound, the TGI [4] was > 100 µM, the TGI [5] was > 100 µM and the TGI [6] was > 100 µM. The TGI [7] was > 100 µM and the TGI [9] was > 100 µM.

In the case of C/C(=N\n1c(O)c(C#N)cc(C#N)c1=O)c1ccncc1, the GI50 [1] is reported as > 100 µM, the TGI [1] is reported as > 100 µM and the GI50 [2] is reported as > 100 µM. For the same compound, the TGI [2] was > 100 µM, the GI50 [3] was > 100 µM and the TGI [3] was > 100 µM. For the same compound, the GI50 [10] was > 100 µM, the TGI [10] was > 100 µM and the GI50 [5] was > 100 µM. For the same compound, the TGI [5] was > 100 µM, the GI50 [7] was > 100 µM and the TGI [7] was > 100 µM. For the same compound, the GI50 [8] was > 100 µM, the TGI [8] was > 100 µM and the GI50 [9] was > 100 µM. The TGI [9] was > 100 µM.

For COc1ccc2nc3cc([N+](=O)[O-])ccc3c(NNc3ccccc3)c2c1, the GI50 [1] was 6.73 µM, the TGI [1] was 25.2 µM and > 100 µM and the GI50 [2] was 6.77 µM. The TGI [2] was 22.5 µM and > 100 µM, the GI50 [3] was 12.1 µM and the TGI [3] was 30 µM and > 100 µM. The TGI [10] was > 100 µM, the GI50 [5] was 19.8 µM and the TGI [5] was > 100 µM. For the same compound, the GI50 [7] was 10.2 µM, the TGI [7] was 21.9 µM and > 100 µM and the TGI [8] was > 78.9 µM. The TGI [9] was 43.4 µM.

Clc1ccc2ncc(-c3cccc(NC4CNC4)n3)n2c1 was tested, and the GI50 [1] was 3.34 µM, the TGI [1] was 20.2 µM and the GI50 [2] was 3.92 µM. For the same compound, the TGI [2] was 84.3 µM, the GI50 [3] was 8.03 µM and the TGI [3] was 93.3 µM. It also gave a GI50 [10] of 3.91 µM, a TGI [10] of 20.6 µM and a GI50 [5] of 2.92 µM. For the same compound, the TGI [5] was 15.8 µM, the GI50 [7] was 18.9 µM and the TGI [7] was > 100 µM. It also gave a GI50 [8] of 13.5 µM, a TGI [8] of 37.9 µM and a GI50 [9] of 8.59 µM. It also gave a TGI [9] of 26.4 µM.

With O=c1c2ccccc2nc(-c2ccccc2Cl)n1-c1nnc(C(F)(F)F)s1 the GI50 [1] was 2.44 µM, the TGI [1] was 9.11 µM and the GI50 [2] was 3.37 µM. The TGI [2] was > 100 µM, the GI50 [3] was 3.99 µM and the TGI [3] was 24 µM. It also gave a GI50 [10] of 2.38 µM, a TGI [10] of 9.3 µM and a GI50 [5] of 3.4 µM. For the same compound, the TGI [5] was 15.9 µM, the GI50 [7] was 3.25 µM and the TGI [7] was 11.4 µM. The GI50 [8] was 2.72 µM, the TGI [8] was 6.27 µM and the GI50 [9] was 2.51 µM. It also gave a TGI [9] of 7.35 µM.

O=C(O)c1c(Cl)c(Cl)c(Cl)c(Cl)c1C(=O)Nc1ccc2cn[nH]c2c1 was tested, and the TGI [1] was > 100 µM, the TGI [2] was > 100 µM and the TGI [3] was > 100 µM. The TGI [10] was > 100 µM, the TGI [5] was > 100 µM and the TGI [7] was > 100 µM. For the same compound, the TGI [8] was > 100 µM and the TGI [9] was > 100 µM.

CN1CCN(c2ccc(NC(=O)c3cncnc3Nc3ccc(OCc4cccc(F)c4)c(Cl)c3)cc2)CC1 gave a GI50 [1] of 6.51 µM, a TGI [1] of 16.5 µM and a GI50 [2] of 7.84 µM. For the same compound, the TGI [2] was > 50 µM, the GI50 [3] was 22.4 µM and the TGI [3] was > 50 µM. It also gave a GI50 [10] of 1.99 µM, a TGI [10] of 11.6 µM and a GI50 [5] of 0.932 µM. The TGI [5] was 1.88 µM, the GI50 [7] was 3.58 µM and the TGI [7] was > 50 µM. For the same compound, the GI50 [8] was 3 µM, the TGI [8] was 12.2 µM and the GI50 [9] was 0.85 µM. For the same compound, the TGI [9] was 1.74 µM.

— PubChem BioAssay (NCI)
